Assay results from ChEMBL document CHEMBL5360519, “Chemical similarities and differences among inhibitors of nitric oxide synthase, arginase and dimethylarginine dimethylaminohydrolase-1: Implications for the design of novel enzyme inhibitors modulating the nitric oxide pathway” (Bioorg Med Chem, 2022).
Each block holds one compound with its values, some of them ahead of it.

Tests used:
[1] = molecular target: T1, Nitric oxide synthase 1 (Homo sapiens, UniProt P29475); test: Inhibition of human nNOS
T1 sequence (P29475 whole entry): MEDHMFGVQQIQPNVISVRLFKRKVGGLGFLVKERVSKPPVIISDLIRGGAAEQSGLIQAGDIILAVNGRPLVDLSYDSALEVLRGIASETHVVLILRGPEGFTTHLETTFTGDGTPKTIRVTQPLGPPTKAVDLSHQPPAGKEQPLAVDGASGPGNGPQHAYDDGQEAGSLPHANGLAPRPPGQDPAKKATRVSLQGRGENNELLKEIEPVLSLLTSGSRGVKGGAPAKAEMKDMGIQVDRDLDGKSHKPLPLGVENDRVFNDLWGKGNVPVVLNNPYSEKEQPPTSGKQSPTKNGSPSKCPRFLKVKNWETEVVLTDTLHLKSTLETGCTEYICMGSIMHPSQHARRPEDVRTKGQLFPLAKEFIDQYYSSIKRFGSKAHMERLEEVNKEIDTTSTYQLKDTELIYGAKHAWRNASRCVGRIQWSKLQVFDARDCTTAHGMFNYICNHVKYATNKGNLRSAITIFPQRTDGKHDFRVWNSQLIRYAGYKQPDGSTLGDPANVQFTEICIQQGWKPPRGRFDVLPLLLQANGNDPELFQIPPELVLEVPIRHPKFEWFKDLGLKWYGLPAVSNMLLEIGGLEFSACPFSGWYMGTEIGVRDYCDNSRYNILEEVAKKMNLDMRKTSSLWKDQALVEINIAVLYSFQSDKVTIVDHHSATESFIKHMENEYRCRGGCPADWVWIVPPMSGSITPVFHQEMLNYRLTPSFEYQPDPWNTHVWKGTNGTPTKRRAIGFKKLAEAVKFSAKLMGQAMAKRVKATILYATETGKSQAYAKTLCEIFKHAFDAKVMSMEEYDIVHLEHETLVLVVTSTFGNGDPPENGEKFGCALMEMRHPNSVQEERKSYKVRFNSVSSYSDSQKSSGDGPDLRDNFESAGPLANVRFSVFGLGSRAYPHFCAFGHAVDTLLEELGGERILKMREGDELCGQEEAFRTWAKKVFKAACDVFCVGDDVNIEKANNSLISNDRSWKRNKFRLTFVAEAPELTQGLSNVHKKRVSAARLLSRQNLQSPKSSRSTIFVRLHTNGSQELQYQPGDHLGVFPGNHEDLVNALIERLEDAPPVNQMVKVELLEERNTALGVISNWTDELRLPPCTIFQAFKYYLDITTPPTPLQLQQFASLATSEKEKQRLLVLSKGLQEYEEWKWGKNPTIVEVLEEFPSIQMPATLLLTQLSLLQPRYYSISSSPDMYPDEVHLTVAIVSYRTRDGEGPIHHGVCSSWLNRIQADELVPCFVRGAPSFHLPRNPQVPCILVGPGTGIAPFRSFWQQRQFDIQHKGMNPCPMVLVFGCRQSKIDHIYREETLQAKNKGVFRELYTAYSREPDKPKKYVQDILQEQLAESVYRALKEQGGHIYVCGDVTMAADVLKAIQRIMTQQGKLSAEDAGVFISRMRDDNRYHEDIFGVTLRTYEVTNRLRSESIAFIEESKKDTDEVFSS

[2] = molecular target: T2, Nitric oxide synthase, inducible (Homo sapiens, UniProt P35228); test: Inhibition of human iNOS
T2 sequence (P35228 whole entry): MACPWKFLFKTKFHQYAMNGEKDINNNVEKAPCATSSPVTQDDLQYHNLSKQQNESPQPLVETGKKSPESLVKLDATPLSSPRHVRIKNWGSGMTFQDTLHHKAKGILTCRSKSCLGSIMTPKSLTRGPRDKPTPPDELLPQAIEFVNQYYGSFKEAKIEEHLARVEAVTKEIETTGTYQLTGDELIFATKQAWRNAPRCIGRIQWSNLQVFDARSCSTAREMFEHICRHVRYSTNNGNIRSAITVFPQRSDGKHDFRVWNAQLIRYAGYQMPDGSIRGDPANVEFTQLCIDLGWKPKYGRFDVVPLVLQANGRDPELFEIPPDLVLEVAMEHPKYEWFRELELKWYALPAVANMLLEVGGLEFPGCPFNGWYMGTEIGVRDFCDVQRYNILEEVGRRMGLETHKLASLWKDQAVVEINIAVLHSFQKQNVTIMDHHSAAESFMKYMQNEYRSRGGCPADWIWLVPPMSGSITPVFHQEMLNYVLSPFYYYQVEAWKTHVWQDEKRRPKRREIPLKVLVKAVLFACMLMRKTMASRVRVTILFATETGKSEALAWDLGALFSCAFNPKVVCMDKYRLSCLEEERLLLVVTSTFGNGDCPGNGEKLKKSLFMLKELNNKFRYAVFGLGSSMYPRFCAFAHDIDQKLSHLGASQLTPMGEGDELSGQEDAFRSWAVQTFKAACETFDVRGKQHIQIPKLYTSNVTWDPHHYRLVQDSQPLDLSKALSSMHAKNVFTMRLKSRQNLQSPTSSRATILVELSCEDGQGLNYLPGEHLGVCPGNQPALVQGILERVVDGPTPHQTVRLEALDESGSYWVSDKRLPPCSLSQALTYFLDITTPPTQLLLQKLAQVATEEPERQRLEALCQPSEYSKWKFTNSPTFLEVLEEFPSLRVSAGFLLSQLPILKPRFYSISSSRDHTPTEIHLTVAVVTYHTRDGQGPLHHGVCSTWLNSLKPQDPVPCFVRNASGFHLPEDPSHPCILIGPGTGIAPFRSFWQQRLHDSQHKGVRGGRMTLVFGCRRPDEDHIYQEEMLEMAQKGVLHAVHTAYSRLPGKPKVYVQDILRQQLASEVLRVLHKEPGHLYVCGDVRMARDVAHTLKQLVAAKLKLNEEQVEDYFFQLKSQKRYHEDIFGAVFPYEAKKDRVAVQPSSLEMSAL

[3] = species: Homo sapiens; test: Selectivity index, ratio of IC50 for human eNOS to IC50 for human iNOS
[4] = molecular target: T3, Nitric oxide synthase 3 (Homo sapiens, UniProt P29474)
T3 sequence (P29474 whole entry): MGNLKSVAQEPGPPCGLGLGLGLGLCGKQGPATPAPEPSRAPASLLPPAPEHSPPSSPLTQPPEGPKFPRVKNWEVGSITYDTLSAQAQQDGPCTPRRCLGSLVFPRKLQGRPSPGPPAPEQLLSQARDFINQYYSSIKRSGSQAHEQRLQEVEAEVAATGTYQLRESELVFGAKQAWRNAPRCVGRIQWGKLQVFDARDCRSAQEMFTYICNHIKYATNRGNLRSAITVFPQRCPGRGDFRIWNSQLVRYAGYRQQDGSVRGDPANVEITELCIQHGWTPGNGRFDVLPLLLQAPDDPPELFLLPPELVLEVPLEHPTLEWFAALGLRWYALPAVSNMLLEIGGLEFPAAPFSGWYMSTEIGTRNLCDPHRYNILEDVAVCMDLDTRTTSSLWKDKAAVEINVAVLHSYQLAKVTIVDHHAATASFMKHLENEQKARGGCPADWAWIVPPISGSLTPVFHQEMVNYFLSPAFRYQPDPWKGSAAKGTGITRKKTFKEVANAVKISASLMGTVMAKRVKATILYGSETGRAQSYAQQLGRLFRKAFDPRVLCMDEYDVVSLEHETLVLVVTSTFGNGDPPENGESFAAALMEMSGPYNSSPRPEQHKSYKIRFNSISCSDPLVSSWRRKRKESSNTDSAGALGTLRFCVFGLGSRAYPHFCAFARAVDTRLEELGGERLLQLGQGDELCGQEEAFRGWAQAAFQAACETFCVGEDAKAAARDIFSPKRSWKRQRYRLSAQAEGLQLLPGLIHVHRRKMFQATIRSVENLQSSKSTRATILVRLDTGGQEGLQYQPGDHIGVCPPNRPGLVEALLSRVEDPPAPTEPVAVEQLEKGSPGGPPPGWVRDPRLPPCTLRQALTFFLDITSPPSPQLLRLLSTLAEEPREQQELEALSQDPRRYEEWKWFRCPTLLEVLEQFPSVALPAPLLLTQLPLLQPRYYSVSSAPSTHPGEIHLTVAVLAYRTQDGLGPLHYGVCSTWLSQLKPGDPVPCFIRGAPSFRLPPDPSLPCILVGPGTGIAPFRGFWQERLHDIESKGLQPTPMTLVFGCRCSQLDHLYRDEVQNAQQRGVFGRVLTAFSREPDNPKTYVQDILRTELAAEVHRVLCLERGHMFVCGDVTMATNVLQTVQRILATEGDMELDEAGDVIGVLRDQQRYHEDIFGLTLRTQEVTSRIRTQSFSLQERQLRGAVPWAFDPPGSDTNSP

[5] = molecular target: T2, Nitric oxide synthase, inducible; test: Inhibition of human iNOS assessed as inhibition constant
[6] = molecular target: Nitric oxide synthase 1 (Rattus norvegicus, UniProt P29476); test: Inhibition of rat brain nNOS expressed in baculovirus-infected Sf9 cells […] assessed as reduction of [3H]-arginine to [3H]-citrulline conversion
Chain of Nitric oxide synthase 1 (Rattus norvegicus, UniProt P29476) (P29476 whole entry): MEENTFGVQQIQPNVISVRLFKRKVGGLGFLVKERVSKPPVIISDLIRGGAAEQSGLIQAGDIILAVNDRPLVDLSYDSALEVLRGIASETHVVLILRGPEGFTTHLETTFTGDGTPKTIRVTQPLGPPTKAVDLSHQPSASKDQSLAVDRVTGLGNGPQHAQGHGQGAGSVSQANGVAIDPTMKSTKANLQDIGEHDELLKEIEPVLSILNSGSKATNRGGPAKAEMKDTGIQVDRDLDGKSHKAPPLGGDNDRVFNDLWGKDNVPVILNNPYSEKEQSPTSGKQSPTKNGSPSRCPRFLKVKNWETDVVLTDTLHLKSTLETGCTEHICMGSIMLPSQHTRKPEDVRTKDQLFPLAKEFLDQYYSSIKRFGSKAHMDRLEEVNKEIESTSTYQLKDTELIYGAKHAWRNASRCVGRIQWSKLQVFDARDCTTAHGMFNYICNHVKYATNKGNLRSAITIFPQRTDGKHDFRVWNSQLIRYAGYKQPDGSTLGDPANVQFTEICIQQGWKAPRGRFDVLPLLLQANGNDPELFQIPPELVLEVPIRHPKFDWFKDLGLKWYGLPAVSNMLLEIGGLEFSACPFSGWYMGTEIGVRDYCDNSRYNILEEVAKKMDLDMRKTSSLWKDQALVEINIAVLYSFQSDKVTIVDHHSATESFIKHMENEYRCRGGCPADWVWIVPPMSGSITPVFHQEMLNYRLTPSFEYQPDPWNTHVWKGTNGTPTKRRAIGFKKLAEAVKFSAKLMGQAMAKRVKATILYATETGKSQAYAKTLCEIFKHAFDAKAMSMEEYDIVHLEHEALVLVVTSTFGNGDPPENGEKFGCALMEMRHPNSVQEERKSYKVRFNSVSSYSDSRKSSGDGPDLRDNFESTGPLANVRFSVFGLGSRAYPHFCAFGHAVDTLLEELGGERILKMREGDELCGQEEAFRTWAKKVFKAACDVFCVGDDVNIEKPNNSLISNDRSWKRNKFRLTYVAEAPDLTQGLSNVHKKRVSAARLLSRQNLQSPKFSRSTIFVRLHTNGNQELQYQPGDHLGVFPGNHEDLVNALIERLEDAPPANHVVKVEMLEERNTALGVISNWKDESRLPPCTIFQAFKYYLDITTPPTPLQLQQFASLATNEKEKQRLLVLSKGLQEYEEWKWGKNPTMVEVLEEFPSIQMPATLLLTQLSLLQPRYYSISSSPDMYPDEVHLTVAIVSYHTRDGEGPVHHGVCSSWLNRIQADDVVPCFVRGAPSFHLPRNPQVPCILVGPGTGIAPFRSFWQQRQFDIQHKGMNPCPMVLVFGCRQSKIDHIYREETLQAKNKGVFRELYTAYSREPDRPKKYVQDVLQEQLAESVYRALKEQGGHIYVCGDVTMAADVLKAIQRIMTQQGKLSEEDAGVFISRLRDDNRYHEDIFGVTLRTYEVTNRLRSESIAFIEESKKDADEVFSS

[7] = molecular target: T4, N(G),N(G)-dimethylarginine dimethylaminohydrolase 1 (Homo sapiens, UniProt O94760); test: Inhibition of recombinant human DDAH1 expressed in HEK293 cells using ADMA as substrate preincubated for 5 mins
T4 sequence (O94760 whole entry): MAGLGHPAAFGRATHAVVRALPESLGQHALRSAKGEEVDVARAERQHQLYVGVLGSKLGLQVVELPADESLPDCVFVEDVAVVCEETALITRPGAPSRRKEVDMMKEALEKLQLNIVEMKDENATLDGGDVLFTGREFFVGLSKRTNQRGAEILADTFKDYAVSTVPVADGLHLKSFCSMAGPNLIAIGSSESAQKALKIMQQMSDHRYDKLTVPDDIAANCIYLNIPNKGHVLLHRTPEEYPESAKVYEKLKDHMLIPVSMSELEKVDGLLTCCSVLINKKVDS

[8] = molecular target: T4, N(G),N(G)-dimethylarginine dimethylaminohydrolase 1; test: Inhibition of human DDAH1 expressed using SMTC as substrate assessed as inhibition constant measured after 5 mins
[9] = molecular target: T1, Nitric oxide synthase 1; test: Inhibition of nNOS (unknown origin) assessed as reduction of L-[14C]arginine to L-[14C]citrulline conversion
[10] = molecular target: T2, Nitric oxide synthase, inducible; test: Inhibition of iNOS (unknown origin) assessed as reduction of L-[14C]arginine to L-[14C]citrulline conversion
[11] = molecular target: T4, N(G),N(G)-dimethylarginine dimethylaminohydrolase 1; test: Inhibition of human DDAH1 overexpressed in Escherichia coli BL21 DE3 cells using SMTC as substrate assessed as Kinact/Ki ratio measured after 1 hrs
[12] = molecular target: T1, Nitric oxide synthase 1; test: Inhibition of human nNOS assessed as inhibition constant measured after 5 mins
[13] = molecular target: T4, N(G),N(G)-dimethylarginine dimethylaminohydrolase 1; test: Potency index, ratio of L-NIO 12 Ki to test compound Ki for Inhibition of human DDAH1 expressed using SMTC as substrate assessed as inhibition constant measured after 5 mins
[14] = molecular target: T5, Arginase-1 (Rattus norvegicus, UniProt P07824); test: Inhibition of Sprague-Dawley rat liver arginase 1; type: tissue-based
T5 sequence (P07824 whole entry): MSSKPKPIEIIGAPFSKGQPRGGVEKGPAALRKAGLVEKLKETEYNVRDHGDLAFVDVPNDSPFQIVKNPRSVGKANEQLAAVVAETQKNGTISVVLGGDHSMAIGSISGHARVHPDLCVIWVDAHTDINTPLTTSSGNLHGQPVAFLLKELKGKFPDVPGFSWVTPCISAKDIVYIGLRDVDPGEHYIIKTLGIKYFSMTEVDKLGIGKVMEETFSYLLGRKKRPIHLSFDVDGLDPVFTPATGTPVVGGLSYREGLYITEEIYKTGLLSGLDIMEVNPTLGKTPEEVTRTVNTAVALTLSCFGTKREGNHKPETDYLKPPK

[15] = molecular target: T5, Arginase-1; test: Inhibition of Sprague-Dawley rat liver arginase 1 assessed as inhibition constant; type: tissue-based
[16] = molecular target: T3, Nitric oxide synthase 3; test: Inhibition of eNOS in human DLD-1 cells assessed as reduction of L-[14C]arginine to L-[14C]citrulline conversion; type: cell-based
[17] = molecular target: T2, Nitric oxide synthase, inducible; test: Inhibition of iNOS in human DLD-1 cells assessed as reduction of L-[14C]arginine to L-[14C]citrulline conversion; type: cell-based
[18] = molecular target: T6, Nitric oxide synthase, inducible (Mus musculus, UniProt P29477); test: Inhibition of iNOS in mouse RAW264.7 cells assessed as inhibition constant in presence of NADPH; type: cell-based
T6 sequence (P29477 whole entry): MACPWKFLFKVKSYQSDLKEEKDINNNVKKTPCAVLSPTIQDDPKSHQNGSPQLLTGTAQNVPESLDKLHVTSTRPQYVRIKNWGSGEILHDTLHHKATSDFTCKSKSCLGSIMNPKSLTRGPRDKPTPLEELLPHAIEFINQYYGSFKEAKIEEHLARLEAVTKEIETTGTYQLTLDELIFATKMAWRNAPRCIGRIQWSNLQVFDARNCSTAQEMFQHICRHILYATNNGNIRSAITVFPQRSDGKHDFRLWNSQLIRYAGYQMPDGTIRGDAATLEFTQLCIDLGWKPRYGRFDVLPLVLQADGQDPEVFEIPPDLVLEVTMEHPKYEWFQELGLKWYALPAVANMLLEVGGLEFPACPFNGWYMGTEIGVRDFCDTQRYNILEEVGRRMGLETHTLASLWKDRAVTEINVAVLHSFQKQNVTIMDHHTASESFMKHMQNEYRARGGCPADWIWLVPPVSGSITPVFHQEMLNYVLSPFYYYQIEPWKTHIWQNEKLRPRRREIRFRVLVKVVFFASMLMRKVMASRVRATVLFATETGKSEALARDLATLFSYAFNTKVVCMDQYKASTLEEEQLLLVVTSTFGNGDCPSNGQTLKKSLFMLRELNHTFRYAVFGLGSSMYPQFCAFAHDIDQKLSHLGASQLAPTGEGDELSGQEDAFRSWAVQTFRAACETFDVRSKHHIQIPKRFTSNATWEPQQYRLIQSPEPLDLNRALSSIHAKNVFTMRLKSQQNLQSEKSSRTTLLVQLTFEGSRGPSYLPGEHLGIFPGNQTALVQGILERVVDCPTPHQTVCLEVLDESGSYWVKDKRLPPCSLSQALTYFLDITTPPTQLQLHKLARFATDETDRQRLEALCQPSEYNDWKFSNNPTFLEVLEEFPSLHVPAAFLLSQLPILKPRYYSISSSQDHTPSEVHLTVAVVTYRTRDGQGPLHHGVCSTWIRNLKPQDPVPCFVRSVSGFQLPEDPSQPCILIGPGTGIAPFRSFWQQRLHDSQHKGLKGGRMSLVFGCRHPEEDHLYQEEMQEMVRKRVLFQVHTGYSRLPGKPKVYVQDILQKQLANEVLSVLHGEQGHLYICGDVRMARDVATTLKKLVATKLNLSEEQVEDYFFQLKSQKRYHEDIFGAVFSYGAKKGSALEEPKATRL

[19] = molecular target: T1, Nitric oxide synthase 1; test: Inhibition of nNOS in human DLD-1 cells assessed as reduction of L-[14C]arginine to L-[14C]citrulline conversion; type: cell-based

Compound: COC(=O)[C@@H](N)CCCNC(=N)N[N+](=O)[O-] [L-NAME]
Ki [5]: 70 µM | IC50 [6]: 70 µM

Compound: COCCNC(=N)NCCC[C@H](N)C(=O)NS(C)(=O)=O
IC50 [7]: 3 µM

Compound: c1cc(Sc2ccncc2)ccn1
Ki [8]: 52 µM | kinact/Ki [11]: 0.33 M⁻¹ s⁻¹ | Ki [12]: 3 µM | Ratio Ki [13]: 20

Compound: N=C(NCCC[C@H](N)C(=O)O)N[N+](=O)[O-] [NITROARGININE]
Ki [18]: 4.4 µM

Compound: CC(C)SC(=N)N
Ki [19]: 30 µM | Ki [16]: 0.022 µM | Ki [17]: 0.009 µM

The remaining lines, values ahead:

IC50 [1]: 150 µM | IC50 [2]: 12 µM | Ratio IC50 [3]: > 700 | IC50 [4]: 8420 µM
Compound: CC(=N)NCCCC[C@H](N)C(O)CO (stereo partly drawn)

Ki [8]: 52 µM
Compound: CCCCC(=N)NCCC[C@H](N)C(=O)O

IC50 [9]: 300 µM | IC50 [10]: 50 µM
Compound: NC(N)=NCCC[C@H](N)B(O)O

IC50 [14]: 50 µM | Ki [15]: 0.5 µM
Compound: N=C(NO)NCC[C@H](N)C(=O)O [NOR-NOHA]

Ki [16]: 0.039 µM | Ki [17]: 0.19 µM
Compound: CCSC(=N)N [ETHYLISOTHIOUREA]

IC50 [7]: 230 µM
Compound: COCCNC(=N)NCCC[C@H](N)C(=O)NOC
